Test results taken from patent publication US4659859A, “2-alkoxy-1-alkoxy phosphoryl dichlorides” (priority 1986, dated 1987).
Several values for one entry are separate records, joined by “and”; a condition that tells them apart may be missing. Equal values may be shown once. Where a name gives a salt, the structure may show the parent alone.

Key:
P388 leukemia = assay: Antitumor activity vs P388 leukemia; parameters: species or system mice; conditions: mouse, in vivo
From the text: (§1) Compounds according to formula II above are also active against transplanted tumors in mice. Table II which follows gives the results of testing (d,1)-2-ethoxy-1-[(2-trimethylaminoethoxy)phosphinyloxy]-eicosane,hydroxy inner salt, (A), against several such tumors. In the table, column 1 gives the name of the tumor, column 2 the dosage levels, column 3 toxic deaths, column 4, the percent tumor growth inhibition and column 5, the dosage schedule or regimen. Ten mice were given each dosage I.P. and a group of 20 mice used as controls.

[1] = test system: spontaneously hypertensive rats (SHR); assay: Blood pressure and heart rate in spontaneously hypertensive rats, femoral artery cannula; assay type: in vivo, rat; conditions: for Blood pressure: femoral artery cannula
From the text: (§2) The above compounds are also active in lowering the blood pressure of spontaneously hypertensive rats (SHR). […] In the table, column 1 gives the compound used, column 2 the dose level, column 3, the route of administration, column 4, number of rats, column 5, the time of blood pressure measurement, column 6, blood pressure in mm (Hg), and column 7, heart rate.
**B.P. measured by femoral artery cannula.

C-6 colon carcinoma = assay: Antitumor activity vs C-6 colon carcinoma in mice; assay type: in vivo; conditions: daily for 10 days, 5 day delay
From the text: as §1

[2] = test system: X-5563 plasma cell myeloma; assay: Antitumor activity vs X-5563 plasma cell myeloma in mice; assay type: in vivo; conditions: daily for 10 days with 3 day delay
From the text: as §1
Table III gives the results obtained by comparing the activity of the racemate (d,1)-2-ethoxy-1-[(2-trimethylaminoethoxy)phosphinyloxy]eicosane,hydroxy inner salt (A), the L-(-)enantiomer (B) and the D-(+)enantiomer (C) versus X-5563, a plasma cell myeloma.

C3 H mammary carcinoma = assay: Antitumor activity vs C3 H mammary carcinoma; parameters: species or system mice; conditions: mouse, in vivo
From the text: as §1

[3] = test system: spontaneously hypertensive rats (SHR); assay: Blood pressure and heart rate in spontaneously hypertensive rats, tail cuff method; assay type: in vivo, rat; conditions: for Blood pressure: tail cuff
From the text: as §2
*B.P. measured by tail cuff method.

[4] = test system: release of arachidonic acid from membrane phospholipids (rabbit neutrophils); assay: Inhibition of release of arachidonic acid from membrane phospholipids in glycogen-elicited rabbit neutrophils; assay type: cell-based; conditions: A-23187 0.5 mcg/ml activation, 5 minutes pretreatment at 37° C.
Procedure: In this procedure, glycogen-elicited rabbit neutrophils are labelled with ^14 C-arachidonic acid by incubation for one hour at 37° C. and followed by treatment with the compound under test at 37° C. for 5 minutes. The cells were then activated by addition of 0.5 mcg/ml of A-23187 (an ionophore) for 5 minutes. Cellular metabolism was stopped; the membrane lipids extracted; and the extracted lipids chromatographed on TLC plates. Assays were conducted for free ^14 C-arachidonic acid and hydroxy^14 C-eicosatetraenoic acid (HETES) using a radiochromatogram scanner.

6C3 HED lymphosarcoma = assay: Antitumor activity vs 6C3 HED lymphosarcoma in mice; assay type: in vivo; conditions: daily for 8 days after inoculation
From the text: as §1

[5] = test system: X-5563 plasma cell myeloma; assay: Oral dosing vs X-5563 plasma cell myeloma; assay type: in vivo, mice
CA755 mammary carcinoma = assay: Antitumor activity vs CA755 mammary carcinoma; parameters: species or system mice; conditions: mouse, in vivo
From the text: as §1

M-5 ovarian carcinoma = assay: Antitumor activity vs M-5 ovarian carcinoma; parameters: species or system mice; conditions: mouse, in vivo
From the text: as §1

[6] = 3 mg/kg I.V., 0 hours (baseline)
[7] = 10 mg/kg I.V., 0 hours (baseline)
[8] = 30 mg/kg S.C., 0 hours (baseline), 8 rats
[9] = 50 mg/kg S.C., 0 hours (baseline), 8 rats

CCCCCCCCCCCCCCCCCCC(COP(=O)([O-])OCC[N+](C)(C)C)OCC (racemic) [Compound 3, (d,l)-2-Ethoxy-1-[(2-trimethylaminoethoxy)phosphinyloxy]eicosane, hydroxy inner salt]
activity against P388 leukemia (P388 leukemia): no activity
Heart Rate [1, 6]: 335 beats/min
Blood pressure [1, 6]: 195 mm Hg
Heart Rate ([1]; 3 mg/kg I.V., 1.0 hours): 395 beats/min
Blood pressure ([1]; 3 mg/kg I.V., 1.0 hours): 173 mm Hg
Heart Rate ([1]; 3 mg/kg I.V., .08 hours): 280 beats/min
Blood pressure ([1]; 3 mg/kg I.V., .08 hours): 105 mm Hg
Heart Rate ([1]; 3 mg/kg I.V., .25 hours): 337 beats/min
Blood pressure ([1]; 3 mg/kg I.V., .25 hours): 140 mm Hg
Heart Rate ([1]; 3 mg/kg I.V., .5 hours): 370 beats/min
Blood pressure ([1]; 3 mg/kg I.V., .5 hours): 153 mm Hg
Heart Rate [1, 7]: 345 beats/min
Blood pressure [1, 7]: 198 mm Hg
Heart Rate ([1]; 10 mg/kg I.V., 1.0 hours): 365 beats/min
Blood pressure ([1]; 10 mg/kg I.V., 1.0 hours): 154 mm Hg
Heart Rate ([1]; 10 mg/kg I.V., .08 hours): 442 beats/min
Blood pressure ([1]; 10 mg/kg I.V., .08 hours): 78 mm Hg
Heart Rate ([1]; 10 mg/kg I.V., .25 hours): 420 beats/min
Blood pressure ([1]; 10 mg/kg I.V., .25 hours): 140 mm Hg
Heart Rate ([1]; 10 mg/kg I.V., .5 hours): 395 beats/min
Blood pressure ([1]; 10 mg/kg I.V., .5 hours): 153 mm Hg
Percent inhibition of Tumor growth (C-6 colon carcinoma; 12 mg/kg I.P.): 23%
Toxic deaths (C-6 colon carcinoma; 12 mg/kg I.P.): 0/10
Percent inhibition of Tumor growth (C-6 colon carcinoma; 17 mg/kg I.P.): 56%
Toxic deaths (C-6 colon carcinoma; 17 mg/kg I.P.): 1/10
Percent inhibition of Tumor growth (C-6 colon carcinoma; 25 mg/kg I.P.): 24%
Toxic deaths (C-6 colon carcinoma; 25 mg/kg I.P.): 0/10
Percent inhibition of Tumor growth (C-6 colon carcinoma; 35 mg/kg I.P.): Toxic
Toxic deaths (C-6 colon carcinoma; 35 mg/kg I.P.): 5/10
Percent inhibition of Tumor growth ([2]; 12 mg/kg): 37%
Toxic deaths ([2]; 12 mg/kg): 0/10
Toxic deaths ([2]; 17 mg/kg): 0/10
Percent inhibition of Tumor growth ([2]; 17 mg/kg, listed as (d,1)-A): 65%
Percent inhibition of Tumor growth ([2]; 17 mg/kg, listed as A): 65% and 70%
Percent inhibition of Tumor growth ([2]; 25 mg/kg, listed as (d,1)-A): 77%
Toxic deaths ([2]; 25 mg/kg, listed as (d,1)-A): 0/10
Percent inhibition of Tumor growth ([2]; 25 mg/kg, listed as A): 77% and 86%
Toxic deaths ([2]; 25 mg/kg, listed as A): 0/10 and 2/10
Percent inhibition of Tumor growth ([2]; 35 mg/kg, listed as (d,1)-A): Toxic
Toxic deaths ([2]; 35 mg/kg, listed as (d,1)-A): 4/10
Percent inhibition of Tumor growth ([2]; 35 mg/kg, listed as A): toxic
Toxic deaths ([2]; 35 mg/kg, listed as A): 4/10 and 5/10
Toxic deaths ([2]; 50 mg/kg): 10/10
Percent inhibition of Tumor growth ([2]; 50 mg/kg, listed as (d,1)-A): Toxic
Percent inhibition of Tumor growth ([2]; 50 mg/kg, listed as A): toxic
Percent inhibition of Tumor growth ([2]; 70 mg/kg): toxic
Toxic deaths ([2]; 70 mg/kg): 10/10
activity against C3 H mammary carcinoma (C3 H mammary carcinoma): no activity
Blood pressure ([3]; 5 mg/kg S.C., 0 hours (baseline), 5 rats): 188 mm Hg
Blood pressure ([3]; 5 mg/kg S.C., 1 hour, 5 rats): 177 mm Hg
Blood pressure ([3]; 5 mg/kg S.C., 2 hours, 5 rats): 159 mm Hg
Blood pressure ([3]; 5 mg/kg S.C., 3 hours, 5 rats): 155 mm Hg
Blood pressure ([3]; 5 mg/kg S.C., 4 hours, 5 rats): 154 mm Hg
Blood pressure ([3]; 5 mg/kg S.C., 5 hours, 5 rats): 156 mm Hg
Heart Rate [3, 8]: 335 beats/min
Blood pressure [3, 8]: 188 mm Hg
Heart Rate ([3]; 30 mg/kg S.C., 1 hour, 8 rats): 328 beats/min
Blood pressure ([3]; 30 mg/kg S.C., 1 hour, 8 rats): 177 mm Hg
Heart Rate ([3]; 30 mg/kg S.C., 2 hours, 8 rats): 349 beats/min
Blood pressure ([3]; 30 mg/kg S.C., 2 hours, 8 rats): 151 mm Hg
Heart Rate ([3]; 30 mg/kg S.C., 3 hours, 8 rats): 346 beats/min
Blood pressure ([3]; 30 mg/kg S.C., 3 hours, 8 rats): 147 mm Hg
Heart Rate ([3]; 30 mg/kg S.C., 4 hours, 8 rats): 347 beats/min
Blood pressure ([3]; 30 mg/kg S.C., 4 hours, 8 rats): 156 mm Hg
Heart Rate ([3]; 30 mg/kg S.C., 5 hours, 8 rats): 341 beats/min
Blood pressure ([3]; 30 mg/kg S.C., 5 hours, 8 rats): 151 mm Hg
Heart Rate [3, 9]: 345 beats/min
Blood pressure [3, 9]: 190 mm Hg
Heart Rate ([3]; 50 mg/kg S.C., 1 hour, 8 rats): 352 beats/min
Blood pressure ([3]; 50 mg/kg S.C., 1 hour, 8 rats): 177 mm Hg
Heart Rate ([3]; 50 mg/kg S.C., 2 hours, 8 rats): 355 beats/min
Blood pressure ([3]; 50 mg/kg S.C., 2 hours, 8 rats): 149 mm Hg
Heart Rate ([3]; 50 mg/kg S.C., 3 hours, 8 rats): 367 beats/min
Blood pressure ([3]; 50 mg/kg S.C., 3 hours, 8 rats): 143 mm Hg
Heart Rate ([3]; 50 mg/kg S.C., 4 hours, 8 rats): 357 beats/min
Blood pressure ([3]; 50 mg/kg S.C., 4 hours, 8 rats): 139 mm Hg
Heart Rate ([3]; 50 mg/kg S.C., 5 hours, 8 rats): 359 beats/min
Blood pressure ([3]; 50 mg/kg S.C., 5 hours, 8 rats): 129 mm Hg
hypotensive effects in SHR (in words) ([3]; administered subcutaneously, various dose levels): hypotensive effects
inhibition of the release of arachidonic acid (AA) from phospholipids [4]: 69%
inhibition of the total production of free AA and HETES [4]: 97%
Percent inhibition of Tumor growth (6C3 HED lymphosarcoma; 12 mg/kg I.P.): 10%
Toxic deaths (6C3 HED lymphosarcoma; 12 mg/kg I.P.): 0/10
Percent inhibition of Tumor growth (6C3 HED lymphosarcoma; 17 mg/kg I.P.): 15%
Toxic deaths (6C3 HED lymphosarcoma; 17 mg/kg I.P.): 0/10
Percent inhibition of Tumor growth (6C3 HED lymphosarcoma; 25 mg/kg I.P.): 48%
Toxic deaths (6C3 HED lymphosarcoma; 25 mg/kg I.P.): 0/10
Percent inhibition of Tumor growth (6C3 HED lymphosarcoma; 35 mg/kg I.P.): 85%
Toxic deaths (6C3 HED lymphosarcoma; 35 mg/kg I.P.): 0/10
inhibition of tumor growth ([5]; 25 mg/kg orally daily for 10 days after inoculation): 10%
inhibition of tumor growth ([5]; 35 mg/kg orally daily for 10 days after inoculation): 47%
inhibition of tumor growth ([5]; 50 mg/kg orally daily for 10 days after inoculation): 56%
toxicity ([5]; 50, 35 and 25 mg/kg orally daily for 10 days): minimal toxicity
toxicity ([5]; 50 and 70 mg/kg dose levels orally): toxic
activity against CA755 mammary carcinoma (CA755 mammary carcinoma): no activity
activity against M-5 ovarian carcinoma (M-5 ovarian carcinoma): no activity
